{
  "source": "patent US10125100B2",
  "about": "“Kinase inhibitors” (Respivert Limited, priority 2014, dated 2018)",
  "key": {"Jurkat cells": {"system": "Jurkat cells", "experiment": "(r) Cell cytotoxicity assay", "format": "cell-based, human", "conditions": "24 hours", "method_in_brief": "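Jurkat cells (1×10^5/well, RPMI + 10% FBS) exposed to compound at 20, 5 or 1 μg/mL final (1.0% DMSO control) for 24 h at 37° C., 5% CO2. Then stained with 7.5 μg/mL propidium iodide for 15 min. % viability = PI-negative cells by flow cytometry, normalized to DMSO.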"}, "[1]": {"experiment": "Solubility in fasted-state simulated colonic fluid (FaSSCoF)", "format": "physicochemical", "conditions": "for pH 6.5 FaSSCoF Solubility, Run 2 / pH 6.5 FaSSCoF Solubility, Run 1: 24 h; for solubility thermodynamic at 24 h: 25 °C, pH 6.5, fassgf or other biorelevant, thermodynamic from solid", "protocol": "The solubilities of compounds of the invention in FaSSCoF at pH 6.5 are determined using a modification of a previously-reported procedure (Vertzoni, M., et al. Pharm. Res. 2010, 27, 2187-2196). In place of the bile salt extract employed in the original procedure (which extract is no longer available), the modified procedure uses a mixture of sodium taurochlorate (0.15 g), glycocholic acid (0.15 g), ursodeoxycholic acid (0.05 g), cholic acid (0.05 g), and glycodeoxycholic acid (0.05 g). These five bile acids are ground together with a mortar and pestle to produce a fine white powder that is incorporated into the FaSSCoF, as outlined below.\nTris(hydroxymethyl)aminomethane (Tris; 0.275 g) and maleic acid (0.44 g) are dissolved in water (35 mL) to give a solution whose pH is adjusted to 6.5 by treatment with 0.5M NaOH (ca. 12 mL). The solution is then made up to 50 mL with water. A portion of this Tris/maleate buffer solution (ca. 25 mL) is added to a 0.5 L round-bottomed flask, before being treated with 0.00565 g of the bile acid mixture described above. Solutions of phosphatidylcholine (0.0111 g) in DCM (0.15 mL) and palmitic acid (0.0013 g) in DCM (0.15 mL) are added, then the organic solvent is evaporated off under reduced pressure at 40° C. until a clear solution, with no perceptible DCM odour, is achieved. The volume of the evaporated solution is adjusted to 50 mL by addition of the remainder of Tris/maleate buffer, then BSA (0.115 g) is added, before being dissolved by gentle agitation.\nTest compounds are suspended in the pH 6.5 FaSSCoF medium to give a maximum final concentration of 2-10 mg/mL. The suspensions are equilibrated at 25° C. for 24 h, before being filtered through a glass fibre C filter. The filtrates are then diluted as appropriate for injection and quantification by HPLC with reference to a standard. Different volumes of the standard, diluted and undiluted sample solutions are injected and the solubilities are calculated using the peak areas determined by integration of the peak found at the same retention time as the principal peak in the standard injection."}, "[2]": {"experiment": "Hydrolytic stability study", "format": "physicochemical", "conditions": "DMSO/water (3:1); for % Parent Remaining: 1 mg/mL", "protocol": "Chemical stability of compounds of the invention was assessed in a mixture of DMSO and water (3:1) at a test compound concentration of 1 mg/mL.\nGeneral HPLC Procedure • Agilent, Waters X-Select C18, 2.5 μm, 4.6×30 mm column, 4 min method, 5-95% MeCN/water (0.1% formic acid). Flow rate 2.5 mL/min. Column Oven Temperature 40° C. Detection 254 nm.\nSample Preparation • A 1.0 mg sample of test compound was dissolved in 750 μL of DMSO. Water (250 μL) was added slowly, ensuring no precipitation occurred.\nRecording Stability • A 50 μL aliquot of the test solution was removed and analysed in duplicate by 5 μL HPLC injections. The peak area for the test compound was recorded following manual integration of the corresponding UV trace. • The test solution was heated to 60° C., with stirring, and 50 μL aliquots removed for HPLC analysis at 5 and 24 h timepoints."}},
  "note": "Counter-ions that a name gives are not always drawn.",
  "data": [
    {"smiles": "COc1cc(Nc2cc(Oc3ccc(NC(=O)Nc4cc(NS(C)(=O)=O)cc(C(C)(C)C)c4)c4ccccc34)ccn2)ccc1C(=O)NCCCN1CCN(C)CC1", "note": "[17(bp), 4-((4-((4-(3-(3-(tert-Butyl)-5-(methylsulfonamido)phenyl)ureido)naphthalen-1-yl)oxy)pyridin-2-yl)amino)-2-methoxy-N-(3-(4-methylpiperazin-1-yl)propyl)benzamide]", "values": [
      {"measurement": "% Viability at 1 μg/mL", "setting": "Jurkat cells", "value": 93.2, "unit": "%"},
      {"measurement": "% Viability at 5 μg/mL", "setting": "Jurkat cells", "value": 41.0, "unit": "%"},
      {"measurement": "% Viability at 20 μg/mL", "setting": "Jurkat cells", "value": 2.0, "unit": "%"},
      {"measurement": "pH 6.5 FaSSCoF Solubility, Run 2", "setting": "[1]", "value": 0.024, "unit": "mg/mL"}
    ]},
    {"smiles": "C#Cc1cc(Nc2nccc(Oc3ccc(NC(=O)Nc4cc(C(C)C)nn4-c4ccc(C)cc4)c4ccccc34)n2)cc(C(=O)NCCN2CCOCC2)c1", "note": "[Reference Compound B, 3-ethynyl-5-((4-((4-(3-(3-isopropyl-1-(p-tolyl)-1H-pyrazol-5-yl)ureido)naphthalen-1-yl)oxy)pyrimidin-2-yl)amino)-N-(2-morpholinoethyl)benzamide, reference compound]", "values": [
      {"measurement": "% Parent Remaining", "setting": "[2]; 0 min", "value": 100, "unit": "%"},
      {"measurement": "% Parent Remaining", "setting": "[2]; 60° C., 297 min", "value": 79, "unit": "%"},
      {"measurement": "% Parent Remaining", "setting": "[2]; 60° C., 1429 min", "value": 18, "unit": "%"},
      {"measurement": "decomposition under the conditions of the experiment", "setting": "[2]; 60° C.", "value": "substantial decomposition"}
    ]},
    {"smiles": "COc1cc(Nc2cc(Oc3ccc(NC(=O)Nc4cc(C(C)(C)C)cc(NS(C)(=O)=O)c4OC)c4ccccc34)ccn2)ccc1P(C)(=O)O", "note": "[44 (sodium salt), (4-((4-((4-(3-(5-(tert-Butyl)-2-methoxy-3-(methylsulfonamido)phenyl)ureido)naphthalen-1-yl)oxy)pyridin-2-yl)amino)-2-methoxyphenyl)(methyl)phosphinic acid]", "values": [
      {"measurement": "pH 6.5 FaSSCoF Solubility, Run 1", "setting": "[1]", "value": ">7.6", "unit": "mg/mL"},
      {"measurement": "pH 6.5 FaSSCoF Solubility, Run 2", "setting": "[1]", "value": ">5.5", "unit": "mg/mL"}
    ]},
    {"smiles": "COc1cc(Nc2cc(Oc3ccc(NC(=O)Nc4cc(C(C)(C)C)cc(NS(C)(=O)=O)c4OC)c4ccccc34)ccn2)ccc1C(=O)N1C[C@H](O)[C@@H](O)[C@H](O)[C@H]1CO", "note": "[17(ci), N-(5-(tert-Butyl)-2-methoxy-3-(3-(4-((2-((3-methoxy-4-((2R,3R,4R,5S)-3,4,5-trihydroxy-2-(hydroxymethyl)piperidine-1-carbonyl)phenyl)amino)pyridin-4-yl)oxy)naphthalen-1-yl)ureido)phenyl)methanesulfonamide]", "values": [
      {"measurement": "solubility thermodynamic at 24 h", "setting": "[1]", "value": 6, "unit": "µg/mL"},
      {"measurement": "pH 6.5 FaSSCoF Solubility, Run 2", "setting": "[1]", "value": 0.006, "unit": "mg/mL"}
    ]},
    {"smiles": "COc1cc(Nc2cc(Oc3ccc(NC(=O)Nc4cc(C(C)(C)C)cc(NS(C)(=O)=O)c4OC)c4ccccc34)ccn2)ccc1C(=O)NCCC(=O)O", "note": "[17(ay) (hydrochloride salt), 3-(4-((4-((4-(3-(5-(tert-Butyl)-2-methoxy-3-(methylsulfonamido)phenyl)ureido)-naphthalen-1-yl)oxy)pyridin-2-yl)amino)-2-methoxybenzamido)propanoic acid]", "values": [
      {"measurement": "pH 6.5 FaSSCoF Solubility, Run 2", "setting": "[1]", "value": 0.028, "unit": "mg/mL"}
    ]},
    {"smiles": "COc1cc(Nc2cc(Oc3ccc(NC(=O)Nc4cc(C(C)(C)C)cc(NS(C)(=O)=O)c4OC)c4ccccc34)ccn2)ccc1C(=O)NCCNC(=O)CCC(=O)O", "note": "[17(cd) (hydrochloride salt), 4-((2-(4-((4-((4-(3-(5-(tert-Butyl)-2-methoxy-3-(methylsulfonamido)phenyl)ureido)-naphthalen-1-yl)oxy)pyridin-2-yl)amino)-2-methoxybenzamido)ethyl)amino)-4-oxobutanoic acid]", "values": [
      {"measurement": "pH 6.5 FaSSCoF Solubility, Run 2", "setting": "[1]", "value": 0.049, "unit": "mg/mL"}
    ]},
    {"smiles": "COc1cc(Nc2cc(Oc3ccc(NC(=O)Nc4cc(C(C)(C)C)cc(NS(C)(=O)=O)c4OC)c4ccccc34)ccn2)ccc1C(=O)NCC(=O)O", "note": "[17(ar) (hydrochloride salt), 2-(4-((4-((4-(3-(5-(tert-Butyl)-2-methoxy-3-(methylsulfonamido)phenyl)ureido)naphthalen-1-yl)oxy)pyridin-2-yl)amino)-2-methoxybenzamido)acetic acid]", "values": [
      {"measurement": "pH 6.5 FaSSCoF Solubility, Run 2", "setting": "[1]", "value": 0.198, "unit": "mg/mL"}
    ]},
    {"smiles": "COc1cc(Nc2cc(Oc3ccc(NC(=O)Nc4cc(C(C)(C)C)cc(NS(C)(=O)=O)c4OC)c4ccccc34)ccn2)cc(OC)c1C(=O)NCCN1CCN(CCO)CC1", "note": "[Example 37, 4-((4-((4-(3-(5-(tert-Butyl)-2-methoxy-3-(methylsulfonamido)phenyl)ureido)naphthalen-1-yl)oxy)pyridin-2-yl)amino)-N-(2-(4-(2-hydroxyethyl)piperazin-1-yl)ethyl)-2,6-dimethoxybenzamide]", "values": [
      {"measurement": "% Viability at 1 μg/mL", "setting": "Jurkat cells", "value": 52.9, "unit": "%"},
      {"measurement": "% Viability at 5 μg/mL", "setting": "Jurkat cells", "value": 55.8, "unit": "%"},
      {"measurement": "% Viability at 20 μg/mL", "setting": "Jurkat cells", "value": 28.9, "unit": "%"},
      {"measurement": "pH 6.5 FaSSCoF Solubility, Run 2", "setting": "[1]", "value": 0.024, "unit": "mg/mL"}
    ]},
    {"smiles": "COc1cc(Nc2nccc(Oc3ccc(NC(=O)Nc4cc(C(C)(C)C)cc(NS(C)(=O)=O)c4OC)c4ccccc34)n2)ccc1C(=O)NCCC1CCN(C)CC1", "note": "[17(an), 4-((4-((4-(3-(5-(tert-butyl)-2-methoxy-3-(methylsulfonamido)phenyl)ureido)naphthalen-1-yl)oxy)pyrimidin-2-yl)amino)-2-methoxy-N-(2-(1-methylpiperidin-4-yl)ethyl)benzamide]", "values": [
      {"measurement": "% Viability at 1 μg/mL", "setting": "Jurkat cells", "value": 97.9, "unit": "%"},
      {"measurement": "% Viability at 5 μg/mL", "setting": "Jurkat cells", "value": 37.9, "unit": "%"},
      {"measurement": "% Viability at 20 μg/mL", "setting": "Jurkat cells", "value": 1.1, "unit": "%"},
      {"measurement": "pH 6.5 FaSSCoF Solubility, Run 2", "setting": "[1]", "value": 0.049, "unit": "mg/mL"}
    ]},
    {"smiles": "COc1cc(Nc2cc(Oc3ccc(NC(=O)Nc4cc(C(C)(C)C)cc(NS(C)(=O)=O)c4OC)c4ccccc34)ccn2)ccc1C(=O)NCCOCCOCCOP(=O)(O)O", "note": "[19 (sodium salt), 2-(2-(2-(4-((4-((4-(3-(5-(tert-Butyl)-2-methoxy-3-(methylsulfonamido)phenyl)ureido)-naphthalen-1-yl)oxy)pyridin-2-yl)amino)-2-methoxybenzamido)ethoxy)ethoxy)ethyl dihydrogen phosphate]", "values": [
      {"measurement": "solubility thermodynamic at 24 h", "setting": "[1]", "value": "> 4700", "unit": "µg/mL"},
      {"measurement": "pH 6.5 FaSSCoF Solubility, Run 2", "setting": "[1]", "value": ">4.7", "unit": "mg/mL"}
    ]},
    {"smiles": "COc1cc(Nc2cc(Oc3ccc(NC(=O)Nc4cc(C(C)(C)C)cc(NS(C)(=O)=O)c4OC)c4ccccc34)ccn2)ccc1P(C)(=O)O", "note": "[44 (ammonium salt), (4-((4-((4-(3-(5-(tert-Butyl)-2-methoxy-3-(methylsulfonamido)phenyl)ureido)naphthalen-1-yl)oxy)pyridin-2-yl)amino)-2-methoxyphenyl)(methyl)phosphinic acid]", "values": [
      {"measurement": "pH 6.5 FaSSCoF Solubility, Run 1", "setting": "[1]", "value": ">2.4", "unit": "mg/mL"},
      {"measurement": "pH 6.5 FaSSCoF Solubility, Run 2", "setting": "[1]", "value": ">2.4", "unit": "mg/mL"}
    ]}
  ]
}
